# Experimental data published in patent EP4385984A1, “PYRIDINE-N-OXIDES AS INHIBITORS OF NAV1.8” (Grünenthal GmbH, priority 2022, dated 2024).
# Molecular target: T1, human NaV1.8 (Homo sapiens, UniProt Q9Y5Y9)
# T1 construct: expressed in transfected cells; host or cells: HEK
# Test: Electrophysiology: automated whole-cell voltage-clamp (patch clamp) recordings of sodium currents, Qube384
# Type: cell-based
# Details: HEK-NaV1.8 (NM 006514.1) with b3 recombinant cell line, multi hole plates, ambient room temperature, read-out: Potency category (human NaV1.8 IC50)
# Experimental: The following NaV1.8 recombinant cell line was used for recordings: HEK-NaV1.8 (NM 006514.1) with b3 (NM_018400.3).
# Sodium currents were measured using the patch clamp technique in the whole-cell configuration using the Qube384 (Sophion A/S, Copenhagen, Denmark) automated voltage clamp platform. "Multi hole" plates were used for the cell line expressing NaV1.8 while "single hole" plates were used for the recombinant cell lines expressing the other subtypes. Appropriate filters (for minimum seal resistance and minimum current size) and series resistance compensation (for high quality sodium channel recordings) were applied. Data was collected at ambient room temperature.
# The recording […] solution contained (in mM): NaCl 145 mM, KCl 4 mM, CaCl2 2 mM, MgCh 1 mM, HEPES 10 mM, Glucose 10 mM, pH 7.4 (NaOH). The […] recording solution contained (in mM): CsF 120 mM, CsCl 20 mM, NaCl 10 mM, EGTA 10 mM, HEPES 10 mM, pH 7.2 (CsOH). Currents were recorded at 25 kHz sampling frequency and filtered at 5 kHz. Series resistance compensation was applied at 65%. Vehicle (VEH) is the control condition where cells are exposed to 0.3 % DMSO without compound. All runs include VEH controls being exposed to the same voltage protocols to assess non-compound related phenomena such as run down and then used to isolate compound dependent effects on currents.
# To check for state-dependence inhibition, the following voltage-sequence was applied every 20 seconds: From a resting membrane potential of-120 mV, the first test pulse (P1; 20 ms to -10 mV) was applied to check for channels in the Resting State followed by a brief recovery (20 ms to -120 mV), then holding the membrane voltage to V1/2 (4 seconds at voltage to obtain half the channel at Rest and half Inactivated) with a subsequent second test pulse (P2; 20 ms to -10 mV) to check for channels in the Inactivated State, followed by another brief recovery (20 ms to -120 mV) and a final third test pulse (P3; 20 ms to -10 mV) to check for recovered channels.
# To check for frequency-dependent inhibition, a 10 Hz protocol and a 20 Hz protocol were applied; namely,
# From a resting membrane potential of -120 mV, 40-pulses (10 ms to -10 mV) was applied at 10 Hz (at 100 ms between pulses) and then at 20 Hz (at 50 ms between pulses).
# Each parameter was recorded (P1, P2, P3, P40 from 10Hz and P40 from 20Hz) during a control period (lasting ~ 5 minutes) when establishing the baseline and during compound period (lasting ~ 12 minutes) when test compound (or vehicle) was applied. For each parameter, the value at the end of the compound period was normalized to the vehicle baseline; as follows Normalized Inhibition(NormCPD) = (CPD Valueend CPD period)/(VEH Valueend Control Period) [formula]
# To adjust for any variance in the Na^+ current signal during the compound period (owing to cumulative inactivation independent of compound or shifts in biophysics over time), a dedicated segment of the recording wells in each 384 plate were dedicated to having only vehicle exposure. These vehicle-only recordings were used to correct for any apparent "run-up" or "run-down" in the experiment. Normalized Inhibition(NormVEH) = (VEH Valueend CPD period)/(VEH Valueend Control Period) [formula]
# The adjusted inhibition was calculated as follows: % Inhibitioncorrected = 100 × (NormCPD −NormVEH)/(100−NormVEH) [formula]
# Percent inhibition was determined and IC50 values were calculated using a 4 parameter logistic model within XLFit Software (IDBS, Boston MA): %Inhibitioncorrected = A + ((B−A))/((1 + (((x)/(C)))^D) [formula] where A and B are the maximal and minimum inhibition respectively, C is the IC50 concentration and D is the (Hill) slope.
# T1 sequence (Q9Y5Y9 whole entry): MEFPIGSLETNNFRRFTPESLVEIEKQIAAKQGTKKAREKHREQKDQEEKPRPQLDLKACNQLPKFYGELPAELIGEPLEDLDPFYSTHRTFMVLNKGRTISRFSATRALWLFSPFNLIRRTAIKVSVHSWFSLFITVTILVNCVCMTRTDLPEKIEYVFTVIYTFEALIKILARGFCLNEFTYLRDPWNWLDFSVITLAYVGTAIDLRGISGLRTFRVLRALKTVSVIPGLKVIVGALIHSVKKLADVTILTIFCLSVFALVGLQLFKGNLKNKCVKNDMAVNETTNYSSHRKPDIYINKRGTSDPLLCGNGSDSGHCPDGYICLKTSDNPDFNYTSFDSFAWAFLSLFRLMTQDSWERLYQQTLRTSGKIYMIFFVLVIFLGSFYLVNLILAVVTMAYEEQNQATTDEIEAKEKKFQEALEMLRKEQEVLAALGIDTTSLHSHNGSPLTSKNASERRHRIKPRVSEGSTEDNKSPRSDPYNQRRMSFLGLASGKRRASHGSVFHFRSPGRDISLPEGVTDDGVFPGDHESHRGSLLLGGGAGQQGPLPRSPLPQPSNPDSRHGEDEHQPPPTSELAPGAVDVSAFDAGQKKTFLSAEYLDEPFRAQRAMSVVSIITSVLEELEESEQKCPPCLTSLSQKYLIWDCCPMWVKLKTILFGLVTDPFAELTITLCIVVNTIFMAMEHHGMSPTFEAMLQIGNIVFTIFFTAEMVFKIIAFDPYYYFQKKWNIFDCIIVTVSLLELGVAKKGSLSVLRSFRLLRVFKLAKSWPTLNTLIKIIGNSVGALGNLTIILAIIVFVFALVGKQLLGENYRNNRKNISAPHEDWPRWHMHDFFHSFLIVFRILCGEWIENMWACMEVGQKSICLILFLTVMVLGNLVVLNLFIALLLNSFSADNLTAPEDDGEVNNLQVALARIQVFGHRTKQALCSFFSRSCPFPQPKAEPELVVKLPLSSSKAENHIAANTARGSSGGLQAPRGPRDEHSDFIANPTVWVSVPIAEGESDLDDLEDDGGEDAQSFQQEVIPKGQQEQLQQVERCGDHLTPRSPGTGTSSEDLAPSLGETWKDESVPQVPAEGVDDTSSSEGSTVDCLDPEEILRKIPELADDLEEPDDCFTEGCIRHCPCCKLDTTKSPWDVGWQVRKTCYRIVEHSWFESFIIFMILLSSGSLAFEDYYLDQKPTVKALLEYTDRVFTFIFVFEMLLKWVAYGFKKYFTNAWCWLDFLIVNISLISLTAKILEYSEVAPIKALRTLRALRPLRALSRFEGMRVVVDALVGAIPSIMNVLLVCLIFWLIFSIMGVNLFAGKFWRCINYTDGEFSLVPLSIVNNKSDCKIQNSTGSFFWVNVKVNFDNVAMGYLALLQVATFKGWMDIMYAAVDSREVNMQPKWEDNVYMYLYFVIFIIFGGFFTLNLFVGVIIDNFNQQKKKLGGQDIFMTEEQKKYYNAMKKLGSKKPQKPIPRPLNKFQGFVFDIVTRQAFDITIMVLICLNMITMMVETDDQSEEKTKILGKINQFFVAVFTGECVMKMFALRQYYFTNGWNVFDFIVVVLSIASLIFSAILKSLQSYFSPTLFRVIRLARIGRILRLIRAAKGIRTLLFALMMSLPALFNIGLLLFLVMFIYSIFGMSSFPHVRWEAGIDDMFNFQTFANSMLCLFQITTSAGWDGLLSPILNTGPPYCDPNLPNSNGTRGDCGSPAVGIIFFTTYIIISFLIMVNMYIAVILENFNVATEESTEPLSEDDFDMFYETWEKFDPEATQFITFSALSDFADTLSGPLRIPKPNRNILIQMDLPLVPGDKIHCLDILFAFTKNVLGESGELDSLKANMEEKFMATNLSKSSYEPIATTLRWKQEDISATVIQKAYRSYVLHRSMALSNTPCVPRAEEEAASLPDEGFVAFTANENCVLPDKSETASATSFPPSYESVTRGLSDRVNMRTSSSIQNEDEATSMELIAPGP
row,SMILES,IC50
1,"O=C(O)c1cc(NC(=O)c2c(C(F)(F)F)c(C3CC3)nn2CC2CCC(F)(F)CC2)ccn1 [Example 9, 4-(3-cyclopropyl-1-((4,4-difluorocyclohexyl)methyl)-4-(trifluoromethyl)-1H-pyrazole-5-carboxamido)picolinic acid]",0.1 to 1 µM
2,"CC(F)(F)c1nn(CC2CC(F)(F)C2)c(C(=O)Nc2ccc(C(=O)O)nc2)c1C(F)(F)F [Example 8, 5-(1-((3,3-difluorocyclobutyl)methyl)-3-(1,1-difluoroethyl)-4-(trifluoromethyl)-1H-pyrazole-5-carboxamido)picolinic acid]",0.1 to 1 µM
3,"CC(F)(F)c1nn(CC2CC(F)(F)C2)c(C(=O)Nc2ccnc(C(=O)O)c2)c1C(F)(F)F [Example 7, 4-(1-((3,3-difluorocyclobutyl)methyl)-3-(1,1-difluoroethyl)-4-(trifluoromethyl)-1H-pyrazole-5-carboxamido)picolinic acid]",1 to 10 µM
4,"Cc1c(C(C)(F)F)nn(CC2(C)CC(F)(F)C2)c1C(=O)Nc1cc[n+]([O-])c(C(N)=O)c1 [Example 4, 2-carbamoyl-4-(1-((3,3-difluoro-1-methylcyclobutyl)methyl)-3-(1,1-difluoroethyl)-4-methyl-1H-pyrazole-5-carboxamido)pyridine 1-oxide]",≤ 0.1 µM
5,"Cc1c(C(C)(F)F)nn(CC2CC(F)(F)C2)c1C(=O)Nc1cc[n+]([O-])c(C(N)=O)c1 [Example 3, 2-carbamoyl-4-(1-((3,3-difluorocyclobutyl)methyl)-3-(1,1-difluoroethyl)-4-methyl-1H-pyrazole-5-carboxamido)pyridine 1-oxide]",0.1 to 1 µM
6,"CP(C)(=O)c1cc(NC(=O)c2c(C(F)(F)F)cnn2CC2CCCCC2)ccn1 [Example 10, 1-(cyclohexylmethyl)-N-(2-(dimethylphosphoryl)pyridin-4-yl)-4-(trifluoromethyl)-1H-pyrazole-5-carboxamide]",0.1 to 1 µM

# More lines, now with the values ahead:
row,IC50,SMILES
1,0.1 to 1 µM,"Cc1c(C(C)(F)F)nn(C[C@@H]2CCC(F)(F)C2)c1C(=O)Nc1cc[n+]([O-])c(C(N)=O)c1 [Example 1a, (R)-2-Carbamoyl-4-(1-((3,3-difluorocyclopentyl)methyl)-3-(1,1-difluoroethyl)-4-methyl-1H-pyrazole-5-carboxamido)pyridine 1-oxide]"
2,0.1 to 1 µM,"Cc1c(C(C)(F)F)nn(C[C@H]2CCC(F)(F)C2)c1C(=O)Nc1cc[n+]([O-])c(C(N)=O)c1 [Example 1b, (S)-2-Carbamoyl-4-(1-((3,3-difluorocyclopentyl)methyl)-3-(1,1-difluoroethyl)-4-methyl-1H-pyrazole-5-carboxamido)pyridine 1-oxide]"
3,≤ 0.1 µM,"Cc1c(C(C)(F)F)nn(CC2(C)CCC(F)(F)C2)c1C(=O)Nc1cc[n+]([O-])c(C(N)=O)c1 (single isomer, unassigned) [Example 5a, 2-carbamoyl-4-(1-((3,3-difluoro-1-methylcyclopentyl)methyl)-3-(1,1-difluoroethyl)-4-methyl-1H-pyrazole-5-carboxamido)pyridine 1-oxide]"
